Measurements: ChEMBL document CHEMBL3124779, “Discovery of ABT-267, a pan-genotypic inhibitor of HCV NS5A” (J Med Chem, 2014)
In brackets after ≈: the same amount, converted by molar mass.

What was measured:
[1] = system: Hepatitis C virus; test: Antiviral activity against HCV genotype 1 infected in human assessed as cure rate; assay type: functional, Hepacivirus hominis
[2] = Half life in monkey at 2.5 mg/kg, po; assay type: ADME, organism-based, Macaca mulatta; set-up: dose 2.5 mg/kg, route oral; conditions: rhesus monkey, in vivo
[3] = Oral bioavailability in rat at 3 mg/kg; assay type: ADME, organism-based; conditions: in vivo
[4] = Volume of distribution at steady state in dog at 1 mg/kg, iv; assay type: ADME, organism-based, Canis lupus familiaris; set-up: dose 1 mg/kg, route intravenous; conditions: in vivo, read-out: Vdss
[5] = system: Hepatitis C virus; test: Antiviral activity against HCV1a H77 infected in human HuH7 cells assessed as inhibition of viral replication after 4 days by luciferase reporter gene assay; assay type: functional, organism-based, Hepacivirus hominis; conditions: genotype 1a H77, Huh-7, 96 h
[6] = Tmax in monkey at 2.5 mg/kg, po; assay type: ADME, organism-based, Macaca mulatta; set-up: dose 2.5 mg/kg, route oral; conditions: rhesus monkey, in vivo
[7] = AUC in monkey at 2.5 mg/kg, po; assay type: ADME, organism-based, Macaca mulatta; set-up: dose 2.5 mg/kg, route oral; conditions: rhesus monkey, plasma
[8] = Tmax in dog at 2.5 mg/kg, po; assay type: ADME, organism-based, Canis lupus familiaris; set-up: dose 2.5 mg/kg, route oral; conditions: in vivo
[9] = Metabolic stability in rat liver microsomes assessed as compound remaining after 30 mins; assay type: ADME; conditions: read-out: Stability
[10] = Cmax in rat at 3 mg/kg, po; assay type: ADME, organism-based; set-up: dose 3 mg/kg, route oral; conditions: in vivo
[11] = Volume of distribution at steady state in rat at 3 mg/kg, iv; assay type: ADME, organism-based; set-up: dose 3 mg/kg, route intravenous; conditions: in vivo, read-out: Vdss
[12] = system: Hepatitis C virus; test: Ratio of EC50 for HCV1b Con1 infected in human HuH7 cells in presence of 40% human plasma to EC50 for HCV1b Con1 infected in human HuH7 cells in absence of 40% human plasma; assay type: functional, Hepacivirus hominis, isolate Con1, Huh-7
[13] = Half life in rat at 3 mg/kg, po; assay type: ADME, organism-based; set-up: dose 3 mg/kg, route oral; conditions: in vivo
[14] = Oral bioavailability in dog at 2.5 mg/kg; assay type: ADME, organism-based, Canis lupus familiaris; conditions: in vivo
[15] = AUC in rat at 3 mg/kg, po; assay type: ADME, organism-based; set-up: dose 3 mg/kg, route oral; conditions: plasma
[16] = Cmax in monkey at 2.5 mg/kg, po; assay type: ADME, organism-based, Macaca mulatta; set-up: dose 2.5 mg/kg, route oral; conditions: rhesus monkey, in vivo
[17] = AUC in dog at 2.5 mg/kg, po; assay type: ADME, organism-based, Canis lupus familiaris; set-up: dose 2.5 mg/kg, route oral; conditions: plasma
[18] = Lipophilicity, log D of the compound at pH 7.4 by HPLC analysis; assay type: physicochemical; conditions: buffer
[19] = Cmax in dog at 2.5 mg/kg, po; assay type: ADME, organism-based, Canis lupus familiaris; set-up: dose 2.5 mg/kg, route oral; conditions: in vivo
[20] = Half life in monkey at 1 mg/kg, iv; assay type: ADME, organism-based, Macaca mulatta; set-up: dose 1 mg/kg, route intravenous; conditions: rhesus monkey, in vivo
[21] = Metabolic stability in human liver microsomes assessed as compound remaining after 30 mins; assay type: ADME; conditions: read-out: Stability
[22] = system: Hepatitis C virus; test: Antiviral activity against HCV1b Con1 infected in human HuH7 cells assessed as inhibition of viral replication after 4 days by luciferase reporter gene assay; assay type: functional, organism-based, Hepacivirus hominis; conditions: isolate Con1, Huh-7, 96 h
[23] = Tmax in rat at 3 mg/kg, po; assay type: ADME, organism-based; set-up: dose 3 mg/kg, route oral; conditions: in vivo
[24] = Volume of distribution at steady state in monkey at 1 mg/kg, iv; assay type: ADME, organism-based, Macaca mulatta; set-up: dose 1 mg/kg, route intravenous; conditions: rhesus monkey, in vivo, read-out: Vdss
[25] = Clearance in monkey at 1 mg/kg, iv; assay type: ADME, organism-based, Macaca mulatta; set-up: dose 1 mg/kg, route intravenous; conditions: rhesus monkey, in vivo
[26] = system: Hepatitis C virus; test: Antiviral activity against HCV1a H77 infected in human HuH7 cells assessed as inhibition of viral replication after 4 days by luciferase reporter gene assay in presence of 40% human plasma; assay type: functional, organism-based, Hepacivirus hominis; conditions: genotype 1a H77, Huh-7, Plasma, 96 h
[27] = Half life in dog at 2.5 mg/kg, po; assay type: ADME, organism-based, Canis lupus familiaris; set-up: dose 2.5 mg/kg, route oral; conditions: in vivo
[28] = system: Hepatitis C virus; test: Antiviral activity against HCV1b Con1 infected in human HuH7 cells assessed as inhibition of viral replication after 4 days by luciferase reporter gene assay in presence of 40% human plasma; assay type: functional, organism-based, Hepacivirus hominis; conditions: isolate Con1, Huh-7, Plasma, 96 h
[29] = Clearance in dog at 1 mg/kg, iv; assay type: ADME, organism-based, Canis lupus familiaris; set-up: dose 1 mg/kg, route intravenous; conditions: in vivo
[30] = Clearance in rat at 3 mg/kg, iv; assay type: ADME, organism-based; set-up: dose 3 mg/kg, route intravenous; conditions: in vivo
[31] = Kinetic solubility of the compound in 10 mM of phosphate buffer at pH 7.2 by CLND method; assay type: physicochemical; conditions: read-out: Kinetic_solubility
[32] = Oral bioavailability in monkey at 2.5 mg/kg; assay type: ADME, organism-based, Macaca mulatta; conditions: rhesus monkey, in vivo
[33] = system: Hepatitis C virus; test: Ratio of EC50 for HCV1a H77 infected in human HuH7 cells in presence of 40% human plasma to EC50 for HCV1a H77 infected in human HuH7 cells in absence of 40% human plasma; assay type: functional, Hepacivirus hominis, genotype 1a H77, Huh-7
[34] = Half life in rat at 3 mg/kg, iv; assay type: ADME, organism-based; set-up: dose 3 mg/kg, route intravenous; conditions: in vivo
[35] = Half life in dog at 1 mg/kg, iv; assay type: ADME, organism-based, Canis lupus familiaris; set-up: dose 1 mg/kg, route intravenous; conditions: in vivo

Compound	bioavailability [3]	Vd [4]	EC50 [5]	Tmax [8]	remaining at 0.5 h [9]	Cmax [10]	Vd [11]	Ratio EC50 [12]	half-life [13]	bioavailability [14]	AUC [15]	AUC [17]	logD [18]	Cmax [19]	remaining at 0.5 h [21]	EC50 [22]	Tmax [23]	EC50 [26]	half-life [27]	EC50 [28]	further results
CCC[C@H](NC(=O)[C@@H]1[C@H]2CCC[C@H]2CN1C(=O)[C@@H](NC(=O)[C@@H](NC(=O)c1cnccn1)C1CCCCC1)C(C)(C)C)C(=O)C(=O)NC1CC1																					Activity [1]: <=75%
COC(=O)N[C@H](C(=O)N1CCC[C@H]1C(=O)Nc1ccc([C@H]2CC[C@H](c3ccc(NC(=O)[C@@H]4CCCN4C(=O)[C@@H](NC(=O)OC)C(C)(C)C)cc3)N2c2ccc(F)cc2)cc1)C(C)(C)C	39%	1.6 L/kg	1.18 nM	2.7 h	69%	960 ng/mL	1 L/kg	20	7 h	94%	10200 ng·h/mL	18300 ng·h/mL	5.2	1070 ng/mL	54%	0.008 nM	2.3 h	20.8 nM	10.3 h	0.162 nM	half-life [2]: 5.4 h; Tmax [6]: 1.7 h; AUC [7]: 490 ng·h/mL; Cmax [16]: 120 ng/mL; half-life [20]: 4.6 h; Vd [24]: 4.1 L/kg; clearance [25]: 15.5 mL/min/kg; clearance [29]: 2.17 mL/min/kg; clearance [30]: 1.67 mL/min/kg; solubility kinetic [31]: 3.9 µM (≈ 3.45 µg/mL); bioavailability [32]: 18%; Ratio EC50 [33]: 18; half-life [34]: 7.5 h; half-life [35]: 9.1 h
COC(=O)N[C@H](C(=O)N1CCC[C@H]1C(=O)Nc1ccc([C@@H]2CC[C@@H](c3ccc(NC(=O)[C@@H]4CCCN4C(=O)[C@@H](NC(=O)OC)C(C)C)cc3)N2c2ccc(C(F)(F)F)cc2)cc1)C(C)C	16%	1.3 L/kg	0.057 nM	4.7 h	56%	30 ng/mL	8.9 L/kg	10	12.1 h	5.5%	500 ng·h/mL	850 ng·h/mL	4.8	70 ng/mL	52%	0.0071 nM	2.2 h	0.65 nM	5.8 h	0.072 nM	clearance [29]: 2.67 mL/min/kg; clearance [30]: 20 mL/min/kg; solubility kinetic [31]: 3.4 µM (≈ 3.08 µg/mL); Ratio EC50 [33]: 11; half-life [34]: 6 h; half-life [35]: 6 h
COC(=O)N[C@H](C(=O)N1CCC[C@H]1C(=O)Nc1ccc([C@H]2CC[C@H](c3ccc(NC(=O)[C@@H]4CCCN4C(=O)[C@@H](NC(=O)OC)C(C)C)cc3)N2c2ccc(C(F)(F)F)cc2)cc1)C(C)C	13%	1.5 L/kg	0.299 nM	1.7 h	58%	200 ng/mL	1.3 L/kg	12	4.9 h	4.2%	1360 ng·h/mL	370 ng·h/mL	4.9	50 ng/mL	58%	0.0062 nM	1.5 h	2.55 nM	5.5 h	0.077 nM	clearance [29]: 4.83 mL/min/kg; clearance [30]: 4.83 mL/min/kg; solubility kinetic [31]: 3.2 µM (≈ 2.9 µg/mL); Ratio EC50 [33]: 9; half-life [34]: 4.2 h; half-life [35]: 4.4 h
COC(=O)N[C@H](C(=O)N1CCC[C@H]1C(=O)Nc1ccc([C@H]2CC[C@H](c3ccc(NC(=O)[C@@H]4CCCN4C(=O)[C@@H](NC(=O)OC)C(C)C)cc3)N2c2ccc(F)cc2)cc1)C(C)C	22%	1.9 L/kg	2.53 nM	1.2 h	38%	1380 ng/mL	0.5 L/kg	5	2.8 h	62%	6360 ng·h/mL	1280 ng·h/mL	4.6	420 ng/mL	38%	0.042 nM	1.3 h	11.1 nM	2.2 h	0.208 nM	half-life [2]: 0.6 h; Tmax [6]: 1.5 h; AUC [7]: 80 ng·h/mL; Cmax [16]: 50 ng/mL; half-life [20]: 0.8 h; Vd [24]: 1.5 L/kg; clearance [25]: 51.7 mL/min/kg; clearance [29]: 21.7 mL/min/kg; clearance [30]: 2.17 mL/min/kg; solubility kinetic [31]: 6 µM (≈ 5.14 µg/mL); bioavailability [32]: 10%; Ratio EC50 [33]: 4; half-life [34]: 3.3 h; half-life [35]: 2 h
CC(C)(C)NC(=O)N[C@H](C(=O)N1C[C@H]2[C@@H]([C@H]1C(=O)NC(CC1CCC1)C(=O)C(N)=O)C2(C)C)C(C)(C)C (some centres not stated) [BOCEPREVIR]																					Activity [1]: <=75%
